Data set [1] deals with proteinase K (Parengyodontium album, UniProt P06873). Nature of the data set: Resistance to proteinase K digestion. The note with it: isolated enzyme proteinase k.
A short description of data set [2]: Temperature-dependent circular dichroism. The format is physicochemical. The note with it: CD; at 95°C. Background: Circular dichroism is widely used to follow secondary structure.

Here are results for three substances from publication PMC7187762 (ACS chemical biology, 2018).

No end group written: not given here.

Sequence of proteinase K (P06873 106-384, species assumed): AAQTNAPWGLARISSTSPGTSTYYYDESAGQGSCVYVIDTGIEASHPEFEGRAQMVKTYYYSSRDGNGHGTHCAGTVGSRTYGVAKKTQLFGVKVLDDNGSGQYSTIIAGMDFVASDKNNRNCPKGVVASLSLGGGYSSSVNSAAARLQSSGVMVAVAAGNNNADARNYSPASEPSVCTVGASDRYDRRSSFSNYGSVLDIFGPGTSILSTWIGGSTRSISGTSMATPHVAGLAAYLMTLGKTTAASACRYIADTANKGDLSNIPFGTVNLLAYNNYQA

For orientation: half-life means the time in which the quantity being followed falls by half. Low readings indicate fast loss, high ones slow loss. For Ac-TWNPATGKWT-NH2 [HP7Δ], the half-life in data set [1] is 0.6 min. Take KTWNPATGKWTE [HP7]: the half-life in data set [1] was 2 min. With “NS1 HBS: HBS-stabilized β-hairpin derived from the Ras-binding NS1 monobody (GGWKGQVYYVG; HBS hydrogen bond surrogate constraint)”, the “decrease in spectral intensity at 215 nm” value in data set [2] came to 25%.
